Entries after “also recorded” stand apart in the source; their conditions may differ. Like-named read-outs stand apart in the source and are kept apart here.
How the values were obtained:
[1] = test system: TZM-BL (derived from Hela Cells); assay: Cytotoxicity screening, Promega CellTiter-Glo Luminescent Cell Viability Assay; assay type: cell-based; settings: Homo sapiens, read-out: IC50 (μM), concentration that inhibits cell growth by 50%
[2] = Solubility in water; assay type: physicochemical
[3] = test system: MT-2 cell line; assay: Cell viability assay; assay type: cell-based, human; settings: MTT assay, concentrations up to 100 μM
[4] = test system: multidrug-resistant strains of HIV; settings: cited from earlier work

Work on `Cl.[N-]=[N+]=N[C@]1(CO)O[C@@H](n2ccc(N)nc2=O)[C@@H](F)[C@@H]1O` [Compound 11, 1-(4-azido-2-deoxy-2-fluoro)-β-D-arabinofuranosyl)cytosine hydrochloride salt] yielded an IC50 [1] of over 140 µM.

With `Cl.[N-]=[N+]=N[C@]1(CO)O[C@@H](n2ccc(N)nc2=O)[C@@H](F)[C@@H]1O` [Compound 11] the solubility [2] was 14.3 g in 100 g water and the “cytotoxicity / effect on cell growth” value [3] was “did not show significant cytotoxicity; also recorded: without significant cytotoxicity; also recorded: no significant effect on cell growth or any cytotoxic effect”.

With `[N-]=[N+]=N[C@]1(CO)O[C@@H](n2ccc(N)nc2=O)[C@@H](F)[C@@H]1O` [Compound 10, 1-(4′-azido-2′-deoxy-2′-fluoro-β -D-arabinofuranosyl)cytosine] the solubility ([2]; water) was 3.1 g in 100 g water and the “cytotoxicity / effect on cell growth” value [3] was “did not show significant cytotoxicity; also recorded: without significant cytotoxicity; also recorded: no significant effect on cell growth or any cytotoxic effect”.

For `Cc1cn([C@H]2C[C@H](O)[C@](CO)(N=[N+]=[N-])O2)c(=O)[nH]c1=O` [4′-C-azidothymidine], the EC50 [4] is listed as 340 nM.

— publication PMC3164908 (European journal of medicinal chemistry, 2011)
